The text below walks through data of US5646308A, “Benzopyran derivatives” (Chugai Seiyaku Kabushiki Kaisha, priority 1992, dated 1997).

One assay relates to Rat Aorta. As to the kind of experiment: Test with Excised Aorta of Rat: relaxation of lasting KCl-induced contraction. Set-up: species or system male Sprague Dawley rat. As to conditions: rat thoracic aorta rings, 30 mM KCl contraction, Krebs-Henseleit, 37° C., tension 2 g; read-out: IC50 (50% inhibitory concentration, relaxation of lasting contraction following KCl addition), Rat Aorta. As to the method:
Test with Excised Aorta of Rat
The thoracic aorta was excised from a male Sprague Dawley rat (450 to 600 g) and cut into 2 mm wide ring preparations. Each preparation was suspended in 10 ml of an organ bath containing a Krebs-Henseleit solution (NaCl: 119; KCl: 4.8; CaCl2 ·2H2 O: 2.53; KH2 PO4 : 1.2; MgSO4 ·7H2 O: 1.2; NaHCO3 : 24.8; glucose: 10 (mM); 37° C.) under a tension of 2 g, and a mixed gas of 95% O2 and 5% CO2 was bubbled therethrough. Isometric contractions of the preparation were recorded by means of an FD pick-up. […] The activity of a test compound to relax a lasting contraction following the KCl addition was evaluated by obtaining a 50% inhibitory concentration (IC50).
The compounds of the present invention obtained in the foregoing Examples and, for comparison, Cromakalim were used as test compounds.

Assay [1] has as its system Guinea Pig Tracheal Muscle. Description: Test with Guinea Pig Tracheal Muscle: relaxing activity on spontaneous tension. Details: species or system male Hartley guinea pig. To be noted: Cavia porcellus, relaxation by 1 mM aminophylline = 100%, 37° C., tension 1 g, read-out: IC50 (concentration exhibiting 50% relaxing activity), Guinea Pig Tracheal Muscle. On the procedure: Test with Guinea Pig Tracheal Muscle
The trachea was excised from a male Hartley guinea pig (450 to 550 g) to make chain preparations. The preparation was suspended In a bath containing the same Krebs-henseleit solution as used in Test Example 1 (37° C.) through which a mixed gas of 95% O2 and 5% CO2 was bubbled. Isometric contractions of the preparation were recorded under a tension of 1 g.
The same test compounds as used in Test Example 1 were used.

Assay [2] relates to histamine-induced increase in respiratory tract inner pressure. As to the kind of experiment: Study on Antiasthmatic Activity: inhibition of histamine-induced increase in respiratory tract inner pressure. As to conditions: Cavia porcellus, 10 min; anesthetized guinea pig, intraduodenal, 0.3% CMC suspension; histamine 5 to 10 μg/kg i.v. every 10 minutes; read-out: ED50 (dose for 50% inhibition of the histamine-induced increase in respiratory tract inner pressure). The class given is in vivo, male hartley guinea pig. As to the method:
Study on Antiasthmatic Activity
A mid-line incision was made in the neck of a male hartley guinea pig (600 to 800 g, CRJ) under anesthesia with […] (40 mg/kg, i.p.). The trachea, the […], and the left carotid artery were exposed, and a cannula was inserted into each of them. The inner pressure of the respiratory tract was measured while applying artificial respiration through the tracheal cannula. The blood pressure was measured through the arterial cannula, and the heart rate was determined from the pulse. Pentobarbital for anesthesia maintenance was continuously administered through the venous cannula. A mid-line incision was made on the abdomen to expose the duodenum, and a canuula for intraduodenal administration was inserted thereinto. After the postoperative convalescene of 30 to 60 minutes, histamine (5 to 10 μg/kg) was intravenously administered every 10 minutes. After it was confirmed that a respiratory tract inner pressure rise reaction was stably obtained, a test compound in the form of a 0.3% CMC suspension was intraduodenally administered. The histamine dose was so selected that the respiratory tract inner pressure might rise to 20 to 40 cmH2 O after every intravenous administration. After administration of the test compound, intrvenous administration of histamine at 10 minutes intervals was continued. The histamine-induced increase in respiratory tract inner pressure after the administration of the test compound was compared with that before the administration.

As a reminder, the ED50 is the dose at which the effect has come halfway, by size or by number of responders.

As to `CNC(=S)C1=CC(CF)(CF)Oc2ccc([N+](=O)[O-])cc21` [Example 8, 2,2-Bis(fluoromethyl)-N-methyl-6-nitro-2H-1-benzopyran-4-carbothioamide], the IC50 in the assay with Rat Aorta is 0.28 nM; in assay [1], 3 nM.
For `N#CCCNC(=O)C1=CC(CF)(CF)Oc2ccc([N+](=O)[O-])cc21` [Example 10, N-(2-cyanoethyl)-2,2-bis(fluoromethyl)-6-nitro-2H-1-benzopyran-4-carboxamide] the same measures were 2.1 nM and 5 nM.
For `CNC(=O)C1=CC(C)(COC)Oc2ccc([N+](=O)[O-])cc21` (stereo not shown) [1(2), 2-methoxymethyl-N,2-dimethyl-6-nitro-2H-1-benzopyran-4-carboxamide], the results for the IC50 (in the assay on Rat Aorta; in assay [1]) were 59 nM and 86 nM, respectively. Besides, the 50% effective dose (ED50) in assay [2] is 0.1 mg/kg.
In the case of `CC1(C)Oc2ccc(C#N)cc2[C@@H](N2CCCC2=O)[C@@H]1O` (relative stereo) [Cromakalim, reference compound], the IC50 with Rat Aorta was determined as 180 nM; in assay [1], 790 nM. Moreover, the median effective dose (ED50) in assay [2] fell in the range of 1 to 3 mg/kg.
Regarding `CN=C(NC#N)C1=CC(CF)(CF)Oc2ccc([N+](=O)[O-])cc21` [Example 9, N-Cyano-2,2-bis(fluoromethyl)-N'-methyl-6-nitro-2H-1-benzopyran-4-amidine], the IC50 was 14 nM in the assay with Rat Aorta and 41 nM in assay [1].
For `CN=C(NC#N)C1=CC(C)(COC)Oc2ccc([N+](=O)[O-])cc21` (stereo not shown) [Example 3, N-Cyano-2-methoxymethyl-N',2-dimethyl-6-nitro-2H-1-benzopyran-4-amidine], in that order: 97 nM and 260 nM.
For `CNC(=S)C1=CC(C)(COC)Oc2ccc([N+](=O)[O-])cc21` (stereo not shown) [Example 2, 2-Methoxymethyl-N,2-dimethyl-6-nitro-2H-1-benzopyran-4-carbothioamide], in that order: 17 nM and 29 nM.
For the molecule `CNC(=O)C1=CC(CF)(CF)Oc2ccc([N+](=O)[O-])cc21` [Example 7, 2,2-Bis(fluoromethyl)-N-methyl-6-nitro-2H-1-benzopyran-4-carboxamide], the IC50 is 6 nM with Rat Aorta and 10 nM in assay [1]. Besides, the 50% effective dose (ED50) in assay [2] amounted to 0.01 mg/kg.
